“And” between values parts separate entries of the source, which are not always exact repeats. Identical values can stand only once.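 Interpolation was linear, between the two tested concentrations surrounding the appropriate level; five concentrations were tested over 48 hours in 96-well plates. GI50 is the concentration that inhibits growth by half. TGI marks complete inhibition of growth.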
Legend:
Assay in all cases: NCI anticancer screen, dose series, 48 h
COLO 205 colon = system: COLO 205 colon
HCT-116 colon = system: HCT-116 colon
HS 578T breast = system: HS 578T breast
IGROV1 ovarian = system: IGROV1 ovarian
MDA-MB-231 breast = system: MDA-MB-231 breast
MOLT-4 leukemia = system: MOLT-4 leukemia
NCI-H23 lung = system: NCI-H23 lung
OVCAR-4 ovarian = system: OVCAR-4 ovarian
SR leukemia = system: SR leukemia
TK-10 renal = system: TK-10 renal

SMILES | GI50 (COLO 205 colon) | TGI (COLO 205 colon) | GI50 (HCT-116 colon) | TGI (HCT-116 colon) | GI50 (HS 578T breast) | TGI (HS 578T breast) | GI50 (IGROV1 ovarian) | TGI (IGROV1 ovarian) | GI50 (MDA-MB-231 breast) | TGI (MDA-MB-231 breast) | GI50 (MOLT-4 leukemia) | TGI (MOLT-4 leukemia) | GI50 (NCI-H23 lung) | TGI (NCI-H23 lung) | GI50 (OVCAR-4 ovarian) | TGI (OVCAR-4 ovarian) | GI50 (SR leukemia) | TGI (SR leukemia) | GI50 (TK-10 renal) | TGI (TK-10 renal)
COc1ccc2c(c1)C(=O)c1c-2c(=O)n(CCCN(C)C)c2cc(OC)c(OC)cc12 | 12.6 µM | 25.3 µM | 4.53 µM | 21.4 µM | 16.2 µM | 36.7 µM | 10.1 µM | 21.8 µM | 14.4 µM | 28.5 µM | 0.149 µM | 12 µM | 6.48 µM | 24.5 µM | 12.6 µM | 25.3 µM | 0.128 µM | 7.63 µM | 15.5 µM | 29.3 µM
Cc1ccc(-n2c(-c3cc4c([nH]c5ccccc54)c(-c4cccc(O)c4)n3)n[nH]c2=S)cc1 | 2.46 µM | 8.14 µM | 0.384 µM | 10 µM | 1.74 µM | 36.2 µM | 0.704 µM | 4.74 µM | 1.35 µM | 6.35 µM | 0.908 µM | 4.76 µM | 1.67 µM | 9.84 µM | 2.23 µM | 11 µM | 0.443 µM | 2.07 µM | 3.68 µM | 16.2 µM
CCOC(=O)C(Cc1ccc(N(CCCl)CCCl)cc1)NC(=O)C(Cc1ccccc1)NC(C)=O (stereo not drawn) | – | > 0.321 µM | – | > 0.388 µM | – | > 1 µM | – | > 0.308 µM | – | > 0.366 µM | – | 0.201 µM | – | > 0.304 µM | – | 0.0353 µM | – | > 1 µM | – | > 0.325 µM
COC1=C(OC)C(=O)C(CCCCCCCCCCO)=C(C)C1=O | 19.6 µM | 34 µM | 4.46 µM | 16.1 µM | 18.3 µM | > 100 µM | 9.74 µM | 29.7 µM | 5.24 µM | 22 µM | 4.54 µM | 21.7 µM | 3.17 µM | 16.6 µM | 1.29 µM | 2.6 µM | 3.18 µM | 19 µM | 16.6 µM | 30.6 µM
COc1ccc(S(=O)(=O)N2CCNCC2)cc1OC | > 100 µM | > 100 µM | > 100 µM | > 100 µM | > 100 µM | > 100 µM | > 100 µM | > 100 µM | > 100 µM | > 100 µM | > 100 µM | > 100 µM | > 100 µM | > 100 µM | > 100 µM | > 100 µM | > 100 µM | > 100 µM | > 100 µM | > 100 µM
Cc1cc2c(c(=O)o1)C1=S(SC(c3ccccc3)=C1)S2 (stereo not drawn) | – | > 100 µM | – | 60.6 µM | – | 96 µM | – | > 100 µM | – | > 100 µM | – | > 100 µM | – | > 100 µM | – | > 100 µM | – | 38.5 µM | – | 87.4 µM
O=S(=O)(NCCCNc1cc(-c2cn(-c3ccccc3)nc2-c2cccc(O)c2)ccn1)c1ccc(F)cc1 | 1.96 µM | 3.87 µM | 2.91 µM | 11.7 µM | 2.71 µM | 9.22 µM | 4.29 µM | 33.5 µM | 2.48 µM | 7.19 µM | 2.15 µM | 6.55 µM | 3.48 µM | 19 µM | 3.82 µM | 48.9 µM | 2.08 µM | 6.09 µM | 7.41 µM | 31.5 µM
COc1c(CC=C(C)C)c(O)c(C(CC(C)C)c2c(O)c(CC=C(C)C)c(O)c(C(C)=O)c2O)c(O)c1C(C)=O (stereo not drawn) | – | 4.7 µM | – | 1.6 µM | – | 4.63 µM | – | 13.4 µM | – | 7.66 µM | – | 2.48 µM | – | 0.877 µM | – | 14.4 µM | – | 3.8 µM | – | 14.6 µM
N#Cc1c(NC(=O)c2ccccc2F)sc2c1CCCC2 | 22.2 µM | > 25 µM | > 25 µM | > 25 µM | > 21.9 µM | > 25 µM | > 25 µM | > 25 µM | > 23.5 µM | > 25 µM | > 25 µM | > 25 µM | > 25 µM | > 25 µM | > 25 µM | > 25 µM | > 25 µM | > 25 µM | > 25 µM | > 25 µM
CC1=NNC(=S)NCCCN2CCN(CCCNC(=S)NN=C(C)C=NNC(=S)NCCCN3CCN(CCCNC(=S)NN=C1)CC3)CC2 | – | > 100 µM | – | > 100 µM | – | > 100 µM | – | > 100 µM | – | > 100 µM | – | > 100 µM | – | > 100 µM | – | > 100 µM | – | > 100 µM | – | > 100 µM
CC1CCN(CCOc2ccc(CNc3ccc4nc(CCC5CCCCC5)[nH]c4c3)cc2)CC1 | 1.57 µM | 3.08 µM | 1.4 µM | 2.72 µM | 1.67 µM | 4.06 µM | 1.59 µM | 3.27 µM | 1.53 µM | 2.94 µM | 1.6 µM | 4.5 µM | 1.89 µM | 3.98 µM | 2.62 µM | 8.18 µM | 0.485 µM | 2.66 µM | 2.24 µM | 4.92 µM
c1ccc(CN2COc3c(ccc4c5c(ccc34)CN(Cc3ccccc3)CO5)C2)cc1 | – | > 100 µM | – | > 100 µM | – | > 100 µM | – | > 100 µM | – | > 100 µM | – | > 100 µM | – | > 100 µM | – | > 100 µM | – | > 100 µM | – | > 100 µM
CC(=O)N(O)c1ccc(/C=C/c2ccccc2)cc1 | 3.34 µM | 44 µM | 1.12 µM | 13.4 µM | 3.62 µM | 68.8 µM | 1.14 µM | 7.41 µM | 3.41 µM | 21.8 µM | 2.27 µM | > 100 µM | 3.6 µM | 36.3 µM | 2.91 µM | > 82.1 µM | 0.244 µM | > 100 µM | 1.9 µM | 5.86 µM
NC(=O)CC(N)c1nn[nH]n1 (stereo not drawn) | – | > 100 µM | – | > 100 µM | – | > 100 µM | – | > 100 µM | – | > 100 µM | – | > 100 µM | – | > 100 µM | – | > 100 µM | – | > 100 µM | – | > 100 µM
O=c1[nH]c2ccccc2n1C1CCN(CCCC(c2ccc(F)cc2)c2ccc(F)cc2)CC1 | 1.31 µM | 2.58 µM and 3.31 µM | 1.44 µM and 5.67 µM | 3.14 µM and 17.8 µM | 1.83 µM and 7.71 µM | 4.47 µM and 24.8 µM | 1.96 µM | 3.86 µM and 32.4 µM | 1.33 µM and 7.38 µM | – | 2.23 µM | 5.75 µM and 16.6 µM | 1.51 µM and 9.1 µM | 3.18 µM and 24.3 µM | 1.23 µM | 2.47 µM and 22 µM | – | 5.22 µM | 1.54 µM and 6.93 µM | 2.95 µM and 16.1 µM
